Patent US5288720A, “Angiotensin II receptor blocking 2,3,6 substituted quinazolinones” (American Cyanamid Company, priority 1993, dated 1994)

Test system: ANGIOTENSIN II VASOPRESSOR RESPONSE
Experiment: AII Challenge: blockade of angiotensin II vasopressor response in conscious SHR
Type: in vivo, rat (Conscious Male Okamoto-Aoki SHR)
Settings: SHR n=2
Summary of the method: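 Percent blockade is derived from the systolic pressure rise in mmHg, taking each rat's own predose response as 100%. Rats were conscious male Okamoto-Aoki SHR, 16-20 weeks, ~330 g, with aortic and caval cannulas under local procaine. Compound went i.v., i.p. or orally, then angiotensin II challenges (0.05 and 0.1 ug/kg i.v.) at 30-300 min.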

[1] = 3 mg/kg p.o., AII 0.05 mcg/kg IV, 30 min post dose
[2] = 3 mg/kg p.o., AII 0.05 mcg/kg IV, 60 min post dose
[3] = 3 mg/kg p.o., AII 0.05 mcg/kg IV, 90 min post dose
[4] = 3 mg/kg p.o., AII 0.05 mcg/kg IV, 120 min post dose
[5] = 3 mg/kg p.o., AII 0.05 mcg/kg IV, 180 min post dose
[6] = 3 mg/kg p.o., AII 0.05 mcg/kg IV, 240 min post dose
[7] = 3 mg/kg p.o., AII 0.05 mcg/kg IV, 300 min post dose
[8] = 3 mg/kg p.o., AII 0.1 mcg/kg IV, 30 min post dose
[9] = 3 mg/kg p.o., AII 0.1 mcg/kg IV, 60 min post dose
[10] = 3 mg/kg p.o., AII 0.1 mcg/kg IV, 90 min post dose
[11] = 3 mg/kg p.o., AII 0.1 mcg/kg IV, 120 min post dose
[12] = 3 mg/kg p.o., AII 0.1 mcg/kg IV, 180 min post dose
[13] = 3 mg/kg p.o., AII 0.1 mcg/kg IV, 240 min post dose
[14] = 3 mg/kg p.o., AII 0.1 mcg/kg IV, 300 min post dose
[15] = 10 mg/kg i.v., AII 0.05 mcg/kg IV, 30 min post dose
[16] = 10 mg/kg i.v., AII 0.05 mcg/kg IV, 60 min post dose
[17] = 10 mg/kg i.v., AII 0.05 mcg/kg IV, 90 min post dose
[18] = 10 mg/kg i.v., AII 0.05 mcg/kg IV, 120 min post dose
[19] = 10 mg/kg i.v., AII 0.05 mcg/kg IV, 180 min post dose
[20] = 10 mg/kg i.v., AII 0.05 mcg/kg IV, 240 min post dose
[21] = 10 mg/kg i.v., AII 0.05 mcg/kg IV, 300 min post dose
[22] = 10 mg/kg i.v., AII 0.1 mcg/kg IV, 30 min post dose
[23] = 10 mg/kg i.v., AII 0.1 mcg/kg IV, 60 min post dose
[24] = 10 mg/kg i.v., AII 0.1 mcg/kg IV, 90 min post dose
[25] = 10 mg/kg i.v., AII 0.1 mcg/kg IV, 120 min post dose
[26] = 10 mg/kg i.v., AII 0.1 mcg/kg IV, 180 min post dose
[27] = 10 mg/kg i.v., AII 0.1 mcg/kg IV, 240 min post dose
[28] = 10 mg/kg i.v., AII 0.1 mcg/kg IV, 300 min post dose

CCCCc1nc2ccc(C(OC)C3CCCN(C)C3=O)cc2c(=O)n1Cc1ccc(-c2ccccc2-c2nn[nH]n2)cc1 (single isomer, unassigned; isomer 2) [Example 43, 2-Butyl-6-[methoxy(1-methyl-2-oxo-3-piperidinyl)methyl]-3-[[2'-(1H-tetrazol-5-yl)[1,1'-biphenyl]-4-yl]methyl]-4(3H)-quinazoline isomer 2]
% Inhibition of AII vasopressor response [1]: 24%
Average Change (systolic blood pressure response to AII) [1]: 32.5 mmHg
% Inhibition of AII vasopressor response [2]: 47%
Average Change (systolic blood pressure response to AII) [2]: 22.5 mmHg
% Inhibition of AII vasopressor response [3]: 53%
Average Change (systolic blood pressure response to AII) [3]: 20 mmHg
% Inhibition of AII vasopressor response [4]: 53%
Average Change (systolic blood pressure response to AII) [4]: 20 mmHg
% Inhibition of AII vasopressor response [5]: 59%
Average Change (systolic blood pressure response to AII) [5]: 17.5 mmHg
% Inhibition of AII vasopressor response [6]: 35%
Average Change (systolic blood pressure response to AII) [6]: 27.5 mmHg
% Inhibition of AII vasopressor response [7]: 6%
Average Change (systolic blood pressure response to AII) [7]: 40 mmHg
% Inhibition of AII vasopressor response [8]: 19%
Average Change (systolic blood pressure response to AII) [8]: 32.5 mmHg
% Inhibition of AII vasopressor response [9]: 19%
Average Change (systolic blood pressure response to AII) [9]: 32.5 mmHg
% Inhibition of AII vasopressor response [10]: 56%
Average Change (systolic blood pressure response to AII) [10]: 17.5 mmHg
% Inhibition of AII vasopressor response [11]: 44%
Average Change (systolic blood pressure response to AII) [11]: 22.5 mmHg
% Inhibition of AII vasopressor response [12]: 6%
Average Change (systolic blood pressure response to AII) [12]: 37.5 mmHg
% Inhibition of AII vasopressor response [13]: 13%
Average Change (systolic blood pressure response to AII) [13]: 35 mmHg
% Inhibition of AII vasopressor response [14]: 8%
Average Change (systolic blood pressure response to AII) [14]: 37 mmHg
% Inhibition of AII vasopressor response [15]: 100%
Average Change (systolic blood pressure response to AII) [15]: 0 mmHg
% Inhibition of AII vasopressor response [16]: 77%
Average Change (systolic blood pressure response to AII) [16]: 7.5 mmHg
% Inhibition of AII vasopressor response [17]: 69%
Average Change (systolic blood pressure response to AII) [17]: 10 mmHg
% Inhibition of AII vasopressor response [18]: 69%
Average Change (systolic blood pressure response to AII) [18]: 10 mmHg
% Inhibition of AII vasopressor response [19]: 58%
Average Change (systolic blood pressure response to AII) [19]: 13.5 mmHg
% Inhibition of AII vasopressor response [20]: 0%
Average Change (systolic blood pressure response to AII) [20]: 32.5 mmHg
% Inhibition of AII vasopressor response [21]: 8%
Average Change (systolic blood pressure response to AII) [21]: 30 mmHg
% Inhibition of AII vasopressor response [22]: 92%
Average Change (systolic blood pressure response to AII) [22]: 2.5 mmHg
% Inhibition of AII vasopressor response [23]: 84%
Average Change (systolic blood pressure response to AII) [23]: 5 mmHg
% Inhibition of AII vasopressor response [24]: 84%
Average Change (systolic blood pressure response to AII) [24]: 5 mmHg
% Inhibition of AII vasopressor response [25]: 68%
Average Change (systolic blood pressure response to AII) [25]: 10 mmHg
% Inhibition of AII vasopressor response [26]: 44%
Average Change (systolic blood pressure response to AII) [26]: 17.5 mmHg
% Inhibition of AII vasopressor response [27]: 56%
Average Change (systolic blood pressure response to AII) [27]: 13.5 mmHg
% Inhibition of AII vasopressor response [28]: 19%
Average Change (systolic blood pressure response to AII) [28]: 25 mmHg
